In patent US4863741A, “Tablet composition for drug combinations” (Abbott Laboratories, priority 1989, dated 1989):
Like-named read-outs stand apart in the source and are kept apart here.

Assay type: physicochemical
Details: for t90 (time required for 10% destruction of erythromycin activity): 25° C.; for t50 (time required for 50% destruction of erythromycin activity): water
Experimental: To evaluate the feasibility of a single, non-enteric coated preparation containing erythromycin, the times required for 50% destruction of erythromycin activity t50) and 10% destruction of erythromycin activity t90) in aqueous solution at 25° C. were calculated as a function of pH from data reported in the literature.

## CC[C@H]1OC(=O)[C@H](C)[C@@H](O[C@H]2C[C@@](C)(OC)[C@@H](O)[C@H](C)O2)[C@H](C)[C@@H](O[C@@H]2O[C@H](C)C[C@H](N(C)C)[C@H]2O)[C@](C)(O)C[C@@H](C)C(=O)[C@H](C)[C@@H](O)[C@]1(C)O [erythromycin]
pH 3.0, aqueous solution
  t90 (time required for 10% destruction of erythromycin activity): 1.52 min
pH 3.5, aqueous solution
  t90 (time required for 10% destruction of erythromycin activity): 528 min
pH 4.0, aqueous solution
  t90 (time required for 10% destruction of erythromycin activity): 15.2 min
pH 4.5, aqueous solution
  t90 (time required for 10% destruction of erythromycin activity): 52.8 min
pH 5.0, aqueous solution
  t90 (time required for 10% destruction of erythromycin activity): 152 min
pH 5.5, aqueous solution
  t90 (time required for 10% destruction of erythromycin activity): 528 min
pH 6.0, aqueous solution
  t90 (time required for 10% destruction of erythromycin activity): 1530 min
pH 3
  t50 (time required for 50% destruction of erythromycin activity): 0.167 h
pH 3.5
  t50 (time required for 50% destruction of erythromycin activity): 0.578 h
pH 4
  t50 (time required for 50% destruction of erythromycin activity): 1.67 h
pH 4.5
  t50 (time required for 50% destruction of erythromycin activity): 5.79 h
pH 5
  t50 (time required for 50% destruction of erythromycin activity): 16.7 h
pH 5.5
  t50 (time required for 50% destruction of erythromycin activity): 57.8 h
pH 6
  t50 (time required for 50% destruction of erythromycin activity): 167 h
